Assay results: US20180194762A1 (Pharmacyclics LLC, priority 2017, published 2018)
Where two headings read alike, the source gives them in different places.

How the values were obtained:
Format in all cases: biochemical
[1] = biological target: T1, TEC (Homo sapiens, UniProt P42680); assay: Inhibition of a panel of kinases (in vitro HotSpot kinase assay, 33P-ATP, 1 μM ATP); details: for IC50: HotSpot kinase assay, 1 μM ATP; for TEC/Btk: ratio of TEC IC50 to Btk IC50 (selectivity)
T1 sequence (P42680 1-631): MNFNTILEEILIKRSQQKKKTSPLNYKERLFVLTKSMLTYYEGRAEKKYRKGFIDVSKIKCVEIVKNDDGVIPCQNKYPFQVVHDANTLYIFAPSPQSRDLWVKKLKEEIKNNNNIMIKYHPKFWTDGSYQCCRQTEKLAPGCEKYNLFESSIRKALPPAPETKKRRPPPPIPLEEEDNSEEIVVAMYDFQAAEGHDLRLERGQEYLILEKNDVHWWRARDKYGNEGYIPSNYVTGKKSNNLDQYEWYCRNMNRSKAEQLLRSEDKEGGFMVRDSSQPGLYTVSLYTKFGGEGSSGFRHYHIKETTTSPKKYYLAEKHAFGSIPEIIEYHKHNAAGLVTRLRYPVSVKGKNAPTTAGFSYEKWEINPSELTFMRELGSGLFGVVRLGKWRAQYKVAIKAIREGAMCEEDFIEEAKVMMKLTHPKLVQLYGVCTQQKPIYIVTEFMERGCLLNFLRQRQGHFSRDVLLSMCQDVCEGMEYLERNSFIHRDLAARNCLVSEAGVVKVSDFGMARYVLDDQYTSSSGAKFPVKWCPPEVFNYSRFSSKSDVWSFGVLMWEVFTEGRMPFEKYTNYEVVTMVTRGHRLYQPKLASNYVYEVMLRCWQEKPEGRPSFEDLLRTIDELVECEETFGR
In short: (§1)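 At 1 μM ATP spiked with 33P-ATP, substrate phosphorylation by the purified enzymes gives the extent of inhibition.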

[2] = biological target: T2, Btk (Homo sapiens, UniProt Q06187); assay: Btk in vitro inhibitory activity (one of Method A TR-FRET, Method B electrophoretic mobility shift, Method C radiometric filter binding)
T2 construct: purified from insect cells as a full-length construct containing a N-terminal 6X-His tag; His6 (N); made in house; host or cells: insect cells (Method C)
T2 sequence (Q06187 whole entry): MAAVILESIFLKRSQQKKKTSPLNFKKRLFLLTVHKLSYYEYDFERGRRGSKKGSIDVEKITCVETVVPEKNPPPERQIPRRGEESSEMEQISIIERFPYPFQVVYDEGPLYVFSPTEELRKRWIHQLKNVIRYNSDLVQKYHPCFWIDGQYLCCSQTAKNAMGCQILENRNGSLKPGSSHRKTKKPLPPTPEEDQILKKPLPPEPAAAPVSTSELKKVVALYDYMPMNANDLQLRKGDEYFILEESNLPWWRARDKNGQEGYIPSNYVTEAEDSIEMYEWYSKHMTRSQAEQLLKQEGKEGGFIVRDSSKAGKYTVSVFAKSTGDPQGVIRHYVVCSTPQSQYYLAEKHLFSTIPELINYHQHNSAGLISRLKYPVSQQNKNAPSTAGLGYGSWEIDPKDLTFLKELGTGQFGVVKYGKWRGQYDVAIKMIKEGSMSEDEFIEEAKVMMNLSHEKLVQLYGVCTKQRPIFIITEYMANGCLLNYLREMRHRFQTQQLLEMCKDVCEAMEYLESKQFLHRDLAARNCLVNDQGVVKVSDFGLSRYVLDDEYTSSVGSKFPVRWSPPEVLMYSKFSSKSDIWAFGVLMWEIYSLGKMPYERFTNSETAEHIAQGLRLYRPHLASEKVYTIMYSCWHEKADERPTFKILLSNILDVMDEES
In short: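 Three alternative formats were used. A radiometric filter-binding read used 8 nM full-length His-BTK with 0.2 mg/mL poly(Glu-Tyr) 4:1 (C); microfluidic separation of 1 μM FAM-peptide by 1 nM BTK gave IC50 from 12-point curves (B); TR-FRET at Km ATP, 0.5 nM Btk, gave Ki(app)-derived IC50 (A).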

[3] = biological target: T3, panel of kinases (Homo sapiens, UniProt P51813); assay: Inhibition of a panel of kinases (in vitro HotSpot kinase assay, 33P-ATP, 1 μM ATP), other kinases; details: BMX wild-type, read-out: BMX-WT IC50
T3 sequence (P51813 1-675): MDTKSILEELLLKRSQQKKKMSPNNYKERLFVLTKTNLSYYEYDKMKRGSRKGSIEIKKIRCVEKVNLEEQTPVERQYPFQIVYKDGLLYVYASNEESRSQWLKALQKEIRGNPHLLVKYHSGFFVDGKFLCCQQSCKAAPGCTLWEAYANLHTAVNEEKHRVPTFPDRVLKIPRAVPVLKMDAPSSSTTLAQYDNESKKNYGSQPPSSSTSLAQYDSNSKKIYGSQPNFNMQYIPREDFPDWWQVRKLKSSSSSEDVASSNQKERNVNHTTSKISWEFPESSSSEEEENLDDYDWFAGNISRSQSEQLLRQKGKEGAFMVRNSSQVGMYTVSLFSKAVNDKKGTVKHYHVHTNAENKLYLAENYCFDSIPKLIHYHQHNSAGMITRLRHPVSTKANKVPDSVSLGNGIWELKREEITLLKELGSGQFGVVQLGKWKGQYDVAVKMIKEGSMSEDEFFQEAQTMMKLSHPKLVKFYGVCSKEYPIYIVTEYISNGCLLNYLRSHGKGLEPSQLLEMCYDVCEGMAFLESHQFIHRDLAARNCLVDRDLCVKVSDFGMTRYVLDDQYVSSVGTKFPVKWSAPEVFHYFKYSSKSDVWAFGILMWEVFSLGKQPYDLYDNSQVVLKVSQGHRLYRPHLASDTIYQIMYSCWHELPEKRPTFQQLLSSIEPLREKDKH
In short: as §1

[4] = wild-type Btk, read-out: Btk-WT IC50
[5] = method is one of A, B or C, not stated which, read-out: IC50 values against Btk

## C=CC(=O)N1CC[C@@H](Nc2n[nH]c3nccc(-c4ccc([C@H](C)NC(=O)c5noc(C(C)(C)C)n5)cc4)c23)C1 [Example 95, 5-tert-butyl-N-[(1S)-1-[4-(3-{[(3R)-1-(prop-2-enoyl)pyrrolidin-3-yl]amino}-1H-pyrazolo[3,4-b]pyridin-4-yl)phenyl]ethyl]-1,2,4-oxadiazole-3-carboxamide]
[1]
  IC50: 924 nM
  TEC/Btk: 14
[2]; [4]
  IC50: 67.9 nM
[3]
  IC50: 774 nM

## C=CC(=O)N1CC[C@@H](Nc2n[nH]c3nccc(-c4ccc([C@H](C)NC(=O)c5ccc(C(C)(C)C)cc5)cc4)c23)C1 [Example 97, 4-tert-butyl-N-[(1S)-1-[4-(3-{[(3R)-1-(prop-2-enoyl)pyrrolidin-3-yl]amino}-1H-pyrazolo[3,4-b]pyridin-4-yl)phenyl]ethyl]benzamide]
[1]
  IC50: 1570 nM
  TEC/Btk: 5
[2]; [4]
  IC50: 309 nM
[3]
  IC50: 709 nM

## C=CC(=O)N1CC[C@@H](Nc2n[nH]c3nccc(-c4ccc([C@@H](C)NC(=O)c5noc(C(C)(C)C)n5)cc4)c23)C1 [Example 98, 5-tert-butyl-N-[(1R)-1-[4-(3-{[(3R)-1-(prop-2-enoyl)pyrrolidin-3-yl]amino}-1H-pyrazolo[3,4-b]pyridin-4-yl)phenyl]ethyl]-1,2,4-oxadiazole-3-carboxamide]
[1]
  IC50: 108 nM
  TEC/Btk: 652
[2]; [5]
  IC50: < 10 nM
[2]; [4]
  IC50: 0.165 nM
[3]
  IC50: 239 nM

## CC(C)(C)c1ccc(C(=O)NCc2ccc(-c3ccnc4[nH]nc(N5CC[C@@H](N)C5)c34)cc2F)cc1 [Example 100, N-[(4-{3-[(3R)-3-aminopyrrolidin-1-yl]-1H-pyrazolo[3,4-b]pyridin-4-yl}-2-fluorophenyl)methyl]-4-tert-butylbenzamide]
[1]
  IC50: 2970 nM
  TEC/Btk: 215
[2]; [4]
  IC50: 13.8 nM
[3]
  IC50: 1890 nM

## C=CC(=O)N[C@@H]1CCN(c2n[nH]c3nccc(-c4ccc(CNC(=O)c5ccc(C(C)(C)C)cc5)c(F)c4)c23)C1 [Example 101, 4-tert-butyl-N-[(2-fluoro-4-{3-[(3R)-3-(prop-2-enamido)pyrrolidin-1-yl]-1H-pyrazolo[3,4-b]pyridin-4-yl}phenyl)methyl]benzamide]
[1]
  IC50: 96 nM
  TEC/Btk: 434
[2]; [5]
  IC50: < 10 nM
[2]; [4]
  IC50: 0.22 nM
[3]
  IC50: 122 nM

## C=CC(=O)N[C@@H]1CCN(c2n[nH]c3nccc(-c4ccc(CNC(=O)c5noc(C(C)(C)C)n5)c(F)c4)c23)C1 [Example 102, 5-tert-butyl-N-[(2-fluoro-4-{3-[(3R)-3-(prop-2-enamido)pyrrolidin-1-yl]-1H-pyrazolo[3,4-b]pyridin-4-yl}phenyl)methyl]-1,2,4-oxadiazole-3-carboxamide]
[1]
  IC50: 20 nM
  TEC/Btk: 305
[2]; [5]
  IC50: < 10 nM
[2]; [4]
  IC50: 0.0652 nM
[3]
  IC50: 33 nM

## CC(C)(C)c1ccc(C(=O)NCc2ccc(-c3ccnc4[nH]nc(NC5CCNCC5)c34)cc2F)cc1 [Example 103, 4-tert-butyl-N-[(2-fluoro-4-{3-[(piperidin-4-yl)amino]-1H-pyrazolo[3,4-b]pyridin-4-yl}phenyl)methyl]benzamide]
[1]
  IC50: > 10000 nM
  TEC/Btk: >100
[2]; [4]
  IC50: 172 nM
[3]
  IC50: 4440 nM

## C=CC(=O)N1CCC(Nc2n[nH]c3nccc(-c4ccc(CNC(=O)c5ccc(C(C)(C)C)cc5)c(F)c4)c23)CC1 [Example 104, 4-tert-butyl-N-{[2-fluoro-4-(3-{[1-(prop-2-enoyl)piperidin-4-yl]amino}-1H-pyrazolo[3,4-b]pyridin-4-yl)phenyl]methyl}benzamide]
[1]
  IC50: 1560 nM
  TEC/Btk: 834
[2]; [5]
  IC50: < 10 nM
[2]; [4]
  IC50: 1.87 nM
[3]
  IC50: 897 nM

## C=CC(=O)N1CCC(Nc2n[nH]c3nccc(-c4ccc(CNC(=O)c5noc(C(C)(C)C)n5)c(F)c4)c23)CC1 [Example 105, 5-tert-butyl-N-{[2-fluoro-4-(3-{[1-(prop-2-enoyl)piperidin-4-yl]amino}-1H-pyrazolo[3,4-b]pyridin-4-yl)phenyl]methyl}-1,2,4-oxadiazole-3-carboxamide]
[1]
  IC50: 470 nM
  TEC/Btk: 1028
[2]; [5]
  IC50: < 10 nM
[2]; [4]
  IC50: 0.457 nM
[3]
  IC50: 312 nM

## C=CC(=O)N1CC(Nc2n[nH]c3nccc(-c4ccc(CNC(=O)c5ccc(C(C)(C)C)cc5)c(F)c4)c23)C1 [Example 106, 4-tert-butyl-N-{[2-fluoro-4-(3-{[1-(prop-2-enoyl)azetidin-3-yl]amino}-1H-pyrazolo[3,4-b]pyridin-4-yl)phenyl]methyl}benzamide]
[1]
  IC50: > 10000 nM
[2]; [4]
  IC50: > 10000 nM
[3]
  IC50: > 10000 nM

## C=CC(=O)N1CC(Nc2n[nH]c3nccc(-c4ccc(CNC(=O)c5noc(C(C)(C)C)n5)c(F)c4)c23)C1 [Example 107, 5-tert-butyl-N-{[2-fluoro-4-(3-{[1-(prop-2-enoyl)azetidin-3-yl]amino}-1H-pyrazolo[3,4-b]pyridin-4-yl)phenyl]methyl}-1,2,4-oxadiazole-3-carboxamide]
[1]
  IC50: > 10000 nM
  TEC/Btk: >100
[2]; [4]
  IC50: 528 nM
[3]
  IC50: > 10000 nM

## CC(C)(C)c1nc(C(=O)NCc2ccc(-c3ccnc4[nH]nc(N5CC[C@@H](N)C5)c34)cc2F)no1 [Example 108, N-[(4-{3-[(3R)-3-aminopyrrolidin-1-yl]-1H-pyrazolo[3,4-b]pyridin-4-yl}-2-fluorophenyl)methyl]-5-tert-butyl-1,2,4-oxadiazole-3-carboxamide]
[1]
  IC50: 1650 nM
[2]; [5]
  IC50: < 10 nM
[2]; [4]
  IC50: 1.77 nM
[3]
  IC50: 1730 nM

## CC(C)(C)c1nc(C(=O)NCc2ccc(-c3ccnc4[nH]nc(NC5CCNCC5)c34)cc2F)no1 [Example 109, 5-tert-butyl-N-[(2-fluoro-4-{3-[(piperidin-4-yl)amino]-1H-pyrazolo[3,4-b]pyridin-4-yl}phenyl)methyl]-1,2,4-oxadiazole-3-carboxamide]
[1]
  IC50: 8400 nM
[2]; [4]
  IC50: 30.1 nM
[3]
  IC50: 4180 nM

## CC#CC(=O)N1CC[C@@H](Nc2n[nH]c3nccc(-c4ccc(CNC(=O)c5ccc(C(F)(F)F)cc5)c(F)c4)c23)C1 [Example 110, N-{[4-(3-{[(3R)-1-(but-2-ynoyl)pyrrolidin-3-yl]amino}-1H-pyrazolo[3,4-b]pyridin-4-yl)-2-fluorophenyl]methyl}-4-(trifluoromethyl)benzamide]
[1]
  IC50: 167 nM
  TEC/Btk: 88
[2]; [5]
  IC50: < 10 nM
[2]; [4]
  IC50: 1.89 nM
[3]
  IC50: 66 nM

## CC#CC(=O)N1CC[C@@H](Nc2n[nH]c3nccc(-c4ccc(CNC(=O)c5cc(C(C)(C)C)on5)c(F)c4)c23)C1 [Example 111, N-{[4-(3-{[(3R)-1-(but-2-ynoyl)pyrrolidin-3-yl]amino}-1H-pyrazolo[3,4-b]pyridin-4-yl)-2-fluorophenyl]methyl}-5-tert-butyl-1,2-oxazole-3-carboxamide]
[1]
  IC50: 107 nM
  TEC/Btk: 594
[2]; [5]
  IC50: < 10 nM
[2]; [4]
  IC50: 0.18 nM
[3]
  IC50: 92 nM

## CC#CC(=O)N1CC[C@@H](Nc2n[nH]c3nccc(-c4ccc(CNC(=O)c5ccc(OC)cc5)c(F)c4)c23)C1 [Example 112, N-{[4-(3-{[(3R)-1-(but-2-ynoyl)pyrrolidin-3-yl]amino}-1H-pyrazolo[3,4-b]pyridin-4-yl)-2-fluorophenyl]methyl}-4-methoxybenzamide]
[1]
  IC50: 100 nM
  TEC/Btk: 24
[2]; [5]
  IC50: < 10 nM
[2]; [4]
  IC50: 4.07 nM
[3]
  IC50: 48 nM
